What was measured:
[1] = system: FU-OV-1 (Ovarian Carcinoma); test: Bliss excess, mean over the matrix (fraction); higher = more synergy
In short: (§1)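 Bliss excess equals the observed combination effect minus the expected value EA + EB − EA·EB, where EA and EB are the effects of each agent alone. Combination Emax is the second-highest inhibition within the matrix. Inhibition was scaled from CellTiter-Glo 2.0 luminescence, with 0 set by vehicle wells and 1 by blank wells, after 72 hours of two-drug dosing of cells plated in 1536-well plates.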

[2] = system: KG-1 (Acute Myeloid Leukemia); test: combination Emax (second highest fraction inhibited in the dose matrix, 72 h); higher = more inhibition; extreme values may be limits of the assay
In short: as §1

[3] = system: FU-OV-1 (Ovarian Carcinoma); test: as above
In short: as §1

[4] = system: SK-UT-1 (Other Solid Carcinomas); test: as above
In short: as §1

[5] = system: HCT-116 (Colorectal Carcinoma); test: as above
In short: as §1

[6] = system: D-283MED (Other Solid Carcinomas); test: as above
In short: as §1

SK-MEL-1 (Melanoma) = test: as above
In short: as §1

[7] = system: HCC1143 (Breast Carcinoma); test: as above
In short: as §1

[8] = system: MEG-01 (Chronic Myelogenous Leukemia); test: as above
In short: as §1

[9] = system: SW948 (Colorectal Carcinoma); test: as above
In short: as §1

D-392MG (Glioblastoma) = test: as above
In short: as §1

[10] = system: HCC-827 (Lung Adenocarcinoma); test: as above
In short: as §1

[11] = system: HLE (Hepatocellular Carcinoma); test: as above
In short: as §1

[12] = system: DOK (Oral Cavity Carcinoma); test: as above
In short: as §1

| SMILES | Bliss excess [1] | combination Emax [2] | combination Emax [3] | combination Emax [4] | combination Emax [5] | combination Emax [6] | combination Emax (SK-MEL-1 (Melanoma)) | combination Emax [7] | combination Emax [8] | combination Emax [9] | combination Emax (D-392MG (Glioblastoma)) | combination Emax [10] | combination Emax [11] | combination Emax [12] |
| --- | --- | --- | --- | --- | --- | --- | --- | --- | --- | --- | --- | --- | --- | --- |
| CC1(C)CCC(CN2CCN(c3ccc(C(=O)NS(=O)(=O)c4ccc(NCC5CCOCC5)c([N+](=O)[O-])c4)c(Oc4cnc5[nH]ccc5c4)c3)CC2)=C(c2ccc(Cl)cc2)C1 [Venetoclax] + C=CCn1c(=O)c2cnc(Nc3ccc(N4CCN(C)CC4)cc3)nc2n1-c1cccc(C(C)(C)O)n1 [AZD1775] (first compound max 1 µM, partner max 1 µM) | -0.0599 | 0.913 | 0.612 | 0.921 | 0.579 | 0.979 | 0.411 | 0.548 | 0.913 | 0.773 | 0.5 | 0.413 | 0.749 | 0.333 |
| CC1(C)CCC(CN2CCN(c3ccc(C(=O)NS(=O)(=O)c4ccc(NCC5CCOCC5)c([N+](=O)[O-])c4)c(Oc4cnc5[nH]ccc5c4)c3)CC2)=C(c2ccc(Cl)cc2)C1 [Venetoclax] + CN(C)CCCOc1ccc(-c2ccc3ncc4c(c3c2)n(C2CCOCC2)c(=O)n4C)cn1 [AZD0156] (first compound max 1 µM, 7x7, partner max 1 µM) | -0.0223 | 0.595 | 0.291 | 0.381 | 0.196 | 0.706 | 0.231 | 0.232 | 0.782 | 0.409 | 0.205 | 0.26 | 0.171 | 0.2 |
| COc1cccc(OCCCN)c1-c1cc(Nc2cnc(C#N)cn2)n[nH]1 [Prexasertib] + CCc1c2c(nc3ccc(O)cc13)-c1cc3c(c(=O)n1C2)COC(=O)[C@]3(O)CC [SN-38] (first compound max 1 µM, 7x7, partner max 0.3 µM) | 0.0846 | 0.925 | 0.806 | 0.982 | 0.901 | 0.99 | 0.623 | 0.928 | 0.94 | 0.94 | 0.551 | 0.749 | 0.95 | 0.627 |
| CC1(C)CCC(CN2CCN(c3ccc(C(=O)NS(=O)(=O)c4ccc(NCC5CCOCC5)c([N+](=O)[O-])c4)c(Oc4cnc5[nH]ccc5c4)c3)CC2)=C(c2ccc(Cl)cc2)C1 [Venetoclax] + Cn1cnc2c(F)c(Nc3ccc(Br)cc3Cl)c(C(=O)NOCCO)cc21 [Selumetinib] (first compound max 1 µM, 7x7, partner max 3 µM) | -0.0929 | 0.726 | 0.445 | 0.221 | 0.506 | 0.523 | 0.872 | 0.275 | 0.868 | 0.577 | 0.161 | 0.184 | 0.191 | 0.407 |
| CN(CCO)CC[C@H](CSc1ccccc1)Nc1ccc(S(=O)(=O)NC(=O)c2ccc(N3CCC([C@@H](O)c4ccccc4-c4ccc(Cl)cc4)CC3)cc2)cc1S(=O)(=O)C(F)(F)F [AZD4320] + Cn1cnc2c(F)c(Nc3ccc(Br)cc3Cl)c(C(=O)NOCCO)cc21 [Selumetinib] (first compound max 1 µM, 7x7, partner max 3 µM) | 0.0354 | 0.971 | 0.619 | 0.345 | 0.709 | 0.918 | 0.976 | 0.361 |  | 0.79 | 0.483 | 0.298 | 0.504 | 0.562 |
| CC1(C)CCC(CN2CCN(c3ccc(C(=O)NS(=O)(=O)c4ccc(NCC5CCOCC5)c([N+](=O)[O-])c4)c(Oc4cnc5[nH]ccc5c4)c3)CC2)=C(c2ccc(Cl)cc2)C1 [Venetoclax] + C[C@@H](Nc1cc(F)cc(F)c1)c1cc(C(=O)N(C)C)cc2c(=O)cc(N3CCOCC3)oc12 [AZD8186] (first compound max 1 µM, 7x7, partner max 3 µM) | -0.0594 | 0.508 | 0.412 | 0.206 | 0.0935 | 0.615 | 0.198 | 0.246 | 0.646 | 0.264 | 0.139 | 0.254 | 0.504 | 0.188 |
| CN(CCO)CC[C@H](CSc1ccccc1)Nc1ccc(S(=O)(=O)NC(=O)c2ccc(N3CCC([C@@H](O)c4ccccc4-c4ccc(Cl)cc4)CC3)cc2)cc1S(=O)(=O)C(F)(F)F [AZD4320] + C[C@@H](Nc1cc(F)cc(F)c1)c1cc(C(=O)N(C)C)cc2c(=O)cc(N3CCOCC3)oc12 [AZD8186] (first compound max 1 µM, 7x7, partner max 3 µM) | -0.0284 | 0.953 | 0.558 | 0.273 | 0.686 | 0.928 | 0.722 | 0.418 | 0.773 | 0.485 | 0.649 | 0.393 | 0.48 | 0.301 |
| CC1(C)CCC(CN2CCN(c3ccc(C(=O)NS(=O)(=O)c4ccc(NCC5CCOCC5)c([N+](=O)[O-])c4)c(Oc4cnc5[nH]ccc5c4)c3)CC2)=C(c2ccc(Cl)cc2)C1 [Venetoclax] + COc1cc(Nc2ncc3c(n2)-c2ccc(Cl)cc2C(c2c(F)cccc2OC)=NC3)ccc1C(=O)O [Alisertib] (first compound max 1 µM, 7x7, partner max 10 µM) | -0.0614 | 1 | 0.665 | 0.458 | 0.581 | 0.85 | 0.351 | 0.469 | 0.817 | 0.926 | 0.416 | 0.457 | 0.598 | 0.646 |
| CC1(C)CCC(CN2CCN(c3ccc(C(=O)NS(=O)(=O)c4ccc(NCC5CCOCC5)c([N+](=O)[O-])c4)c(Oc4cnc5[nH]ccc5c4)c3)CC2)=C(c2ccc(Cl)cc2)C1 [Venetoclax] + Cc1cc2ncnn2cc1Nc1ncc2c(n1)n(C1CCOCC1)c(=O)n2C [AZD7648] (first compound max 1 µM, 7x7, partner max 10 µM) | -0.036 | 0.651 | 0.358 | 0.221 | 0.259 | 0.673 | 0.308 | 0.253 | 0.737 | 0.459 | 0.178 | 0.292 | 0.215 | 0.247 |
| CN(CCO)CC[C@H](CSc1ccccc1)Nc1ccc(S(=O)(=O)NC(=O)c2ccc(N3CCC([C@@H](O)c4ccccc4-c4ccc(Cl)cc4)CC3)cc2)cc1S(=O)(=O)C(F)(F)F [AZD4320] + C=CCn1c(=O)c2cnc(Nc3ccc(N4CCN(C)CC4)cc3)nc2n1-c1cccc(C(C)(C)O)n1 [AZD1775] (first compound max 1 µM, partner max 1 µM) |  | 1 |  | 0.693 | 0.572 | 0.985 | 0.584 | 0.588 | 0.994 | 0.745 | 0.763 | 0.301 | 0.871 | 0.504 |
| Cc1cc2ncnn2cc1Nc1ncc2c(n1)n(C1CCOCC1)c(=O)n2C [AZD7648] + C=CCn1c(=O)c2cnc(Nc3ccc(N4CCN(C)CC4)cc3)nc2n1-c1cccc(C(C)(C)O)n1 [AZD1775] (first compound max 10 µM, partner max 1 µM) |  | 0.452 |  | 0.657 | 0.633 | 0.957 | 0.399 | 0.603 | 0.923 | 0.83 | 0.397 | 0.497 | 0.66 | 0.482 |
| COc1cccc(OCCCN)c1-c1cc(Nc2cnc(C#N)cn2)n[nH]1 [Prexasertib] + CN(C)CCCOc1ccc(-c2ccc3ncc4c(c3c2)n(C2CCOCC2)c(=O)n4C)cn1 [AZD0156] (first compound max 1 µM, 7x7, partner max 1 µM) |  | 0.903 |  | 0.936 | 0.536 | 0.99 | 0.605 | 0.912 | 0.921 | 0.804 | 0.567 | 0.552 | 0.803 | 0.348 |
| COc1cccc(OCCCN)c1-c1cc(Nc2cnc(C#N)cn2)n[nH]1 [Prexasertib] + C=CCn1c(=O)c2cnc(Nc3ccc(N4CCN(C)CC4)cc3)nc2n1-c1cccc(C(C)(C)O)n1 [AZD1775] (first compound max 1 µM, partner max 1 µM) |  | 0.916 |  | 0.967 | 0.921 | 1 | 0.605 | 0.925 | 0.939 | 0.896 | 0.66 | 0.603 | 0.881 | 0.685 |
| COc1cccc2c1C(=O)c1c(O)c3c(c(O)c1C2=O)C[C@@](O)(C(=O)CO)C[C@@H]3O[C@H]1C[C@H](N)[C@H](O)[C@H](C)O1 [Doxorubicin] + Cc1cc2ncnn2cc1Nc1ncc2c(n1)n(C1CCOCC1)c(=O)n2C [AZD7648] (first compound max 1 µM, 7x7, partner max 10 µM) |  | 0.365 |  | 0.873 | 0.918 | 0.943 | 0.593 | 0.518 | 0.867 | 0.52 | 0.586 | 0.72 | 0.812 | 0.697 |
| CC1(C)CCC(CN2CCN(c3ccc(C(=O)NS(=O)(=O)c4ccc(NCC5CCOCC5)c([N+](=O)[O-])c4)c(Oc4cnc5[nH]ccc5c4)c3)CC2)=C(c2ccc(Cl)cc2)C1 [Venetoclax] + C1CN(CCC1(C(=O)N[C@@H](CCO)C2=CC=C(C=C2)Cl)N)C3=NC=NC4=C3C=CN4 [Capivasertib] (first compound max 1 µM, 7x7, partner max 3 µM) | -0.0783 | 0.516 | 0.151 | 0.34 | 0.309 | 0.582 | 0.208 | 0.239 | 0.731 | 0.646 | 0.239 | 0.273 | 0.181 | 0.331 |
| COc1cccc(OCCCN)c1-c1cc(Nc2cnc(C#N)cn2)n[nH]1 [Prexasertib] + C[C@@H]1COCCN1C2=NC(=NC(=C2)C3(CC3)[S@](=N)(=O)C)C4=C5C=CNC5=NC=C4 [AZD6738] (first compound max 1 µM, 7x7, partner max 10 µM) |  | 0.931 |  | 0.926 | 0.747 | 0.988 | 0.624 | 0.938 | 0.929 | 0.821 | 0.524 | 0.549 | 0.867 | 0.43 |
